This note sets out measurements from ChEMBL document CHEMBL3407485, “Design, synthesis and pharmacological evaluation of novel N-(2-(1, 1-dimethyl-5, 7-dioxo-4, 6-diazaspiro[2.4]heptan-6-yl)ethyl) sulfonamide derivatives as potential anticonvulsant agents” (Eur J Med Chem, 2015).

The source made the active and inactive calls. The calls are words filed in the database; no cut-off is given here.

The subject of data set [1] is Mus musculus. The experiment in a line: Neurotoxicity in Kunming mouse assessed as motor impairment at 300 mg/kg, ip after 4 hrs by standardized rotarod test. It is filed as toxicity, organism-based. Also noted: dose 300 mg/kg, route intraperitoneal. To be noted: in vivo. In general terms: In the rotarod test animals must keep their balance on a rotating rod.
Data set [2] concerns Mus musculus. Kind of data set: Anticonvulsant activity in Kunming mouse assessed as protection against maximal electroshock-induced seizures measured as abolition of hind limb tonic extension spasm at 300 mg/kg, ip after 0.5 hrs. Also noted: dose 300 mg/kg. It counts as functional, organism-based. To be noted: Hindlimb.
Data set [3] deals with Mus musculus. The experiment in a line: Anticonvulsant activity in Kunming mouse assessed as protection against maximal electroshock-induced seizures measured as abolition of hind limb tonic extension spasm at 300 mg/kg, ip after 4 hrs. It counts as functional, organism-based. Also noted: dose 300 mg/kg. The following applies: Hindlimb. (In the maximal electroshock model the usual endpoint is tonic extension of the hind limbs.)

In data set [4] the test system is Mus musculus. Kind of data set: Anticonvulsant activity in Kunming mouse assessed as protection against subcutaneous pentylenetetrazole-induced seizures at 100 mg/kg, ip after 0.5 hrs. It is filed as functional, organism-based. Also noted: dose 100 mg/kg.
Data set [5] concerns Mus musculus. The experiment in a line: Neurotoxicity in Kunming mouse assessed as motor impairment at 300 mg/kg, ip after 0.5 hrs by standardized rotarod test. It counts as toxicity, organism-based. Further details: dose 300 mg/kg, route intraperitoneal. The following applies: in vivo.
Data set [6] deals with Mus musculus. The experiment in a line: Anticonvulsant activity in Kunming mouse assessed as protection against subcutaneous pentylenetetrazole-induced seizures at 300 mg/kg, ip after 4 hrs. It is filed as functional, organism-based. Further details: dose 300 mg/kg.
Data set [7] has as its system Mus musculus. The experiment in a line: Protective index, ratio of TD50 for neurotoxicity in ip dosed Kunming mouse to ED50 for protection against maximal electroshock-induced seizure in ip dosed Kunming mouse. It is filed as functional.
Data set [8] is described as follows: Neurotoxicity in ip dosed Kunming mouse assessed as motor impairment after 4 hrs by standardized rotarod test. It is filed as toxicity, organism-based. To be noted: in vivo.
Data set [9] has as its system Mus musculus. The experiment in a line: Anticonvulsant activity in Kunming mouse assessed as protection against maximal electroshock-induced seizures measured as abolition of hind limb tonic extension spasm at 30 mg/kg, ip after 0.5 hrs. It is filed as functional, organism-based. Further details: dose 30 mg/kg. The following applies: Hindlimb.
Data set [10] deals with Mus musculus. The experiment in a line: Anticonvulsant activity in Kunming mouse assessed as protection against subcutaneous pentylenetetrazole-induced seizures at 300 mg/kg, ip after 0.5 hrs. It counts as functional, organism-based. Also noted: dose 300 mg/kg.
The subject of data set [11] is Mus musculus. The experiment in a line: Anticonvulsant activity in ip dosed Kunming mouse assessed as protection against maximal electroshock-induced seizures measured as abolition of hind limb tonic extension spasm after 0.5 hrs. It counts as functional. To be noted: Hindlimb.
For data set [12], the system named is Mus musculus. Kind of data set: Anticonvulsant activity in Kunming mouse assessed as protection against maximal electroshock-induced seizures measured as abolition of hind limb tonic extension spasm at 30 mg/kg, ip after 4 hrs. It counts as functional, organism-based. Further details: dose 30 mg/kg. The following applies: Hindlimb.
The subject of data set [13] is Mus musculus. Kind of data set: Anticonvulsant activity in Kunming mouse assessed as protection against maximal electroshock-induced seizures measured as abolition of hind limb tonic extension spasm at 100 mg/kg, ip after 0.5 hrs. It counts as functional, organism-based. Also noted: dose 100 mg/kg. The following applies: Hindlimb.
The test system of data set [14] is Mus musculus. The experiment in a line: Anticonvulsant activity in Kunming mouse assessed as protection against maximal electroshock-induced seizures measured as abolition of hind limb tonic extension spasm at 100 mg/kg, ip after 4 hrs. The following applies: Hindlimb. It counts as functional, organism-based. Also noted: dose 100 mg/kg.
In data set [15] the test system is Mus musculus. The experiment in a line: Neurotoxicity in Kunming mouse assessed as motor impairment at 100 mg/kg, ip after 0.5 hrs by standardized rotarod test. It is filed as toxicity, organism-based. Also noted: dose 100 mg/kg, route intraperitoneal. To be noted: in vivo.
In data set [16] the test system is Mus musculus. The experiment in a line: Neurotoxicity in Kunming mouse assessed as motor impairment at 100 mg/kg, ip after 4 hrs by standardized rotarod test. It counts as toxicity, organism-based. Also noted: dose 100 mg/kg, route intraperitoneal. The following applies: in vivo.

Turning to `CCC1(C)CC(=O)NC1=O` (configuration not stated) [ETHOSUXIMIDE], the Activity entry in the data set on Mus musculus [1] and with Mus musculus [5] was “Non-toxic” in each case. In addition, the outcome in the data set with Mus musculus [2] and in the data set with Mus musculus [3] was inactive. Besides, the result in the data set with Mus musculus [4] and in the data set with Mus musculus [6] was Active.

Consider `CC1(C)CC12NC(=O)N(CCNS(=O)(=O)c1ccc(F)cc1)C2=O` (racemic), for which the “Ratio TD50/ED50” value with Mus musculus [7] was determined as 20. Also, the Activity entry in the data set on Mus musculus [1] and with Mus musculus [5] was “Non-toxic” each time. Moreover, the TD50 (in general, the 50% point of the dose-response relation for the toxic effect studied) at 4 h in data set [8] is 561 mg/kg. Also, the outcome in the data set on Mus musculus [9], in the data set with Mus musculus [10] and with Mus musculus [12] was Active. Besides, the outcome in the data set with Mus musculus [6] was inactive. The ED50 (as a rule, the dose that gives a 50% effect, or the effect in half of the subjects) in the data set on Mus musculus [11] was determined as 28.1 mg/kg.

`CC1(C)CC12NC(=O)N(CCNS(=O)(=O)c1cccc([N+](=O)[O-])c1)C2=O` (racemic): the figures for the Activity entry with Mus musculus [1] and with Mus musculus [5] were “Non-toxic” and “Toxic”, respectively. The outcome in the data set with Mus musculus [3], in the data set with Mus musculus [6] and in the data set with Mus musculus [10] was inactive. For the same compound, in the data set on Mus musculus [13], the result was Active.

On to `CCOC(=O)C1(NC(=O)NCCNS(=O)(=O)c2cccs2)CC1(C)C` (racemic), for which the Activity entry is listed as “Non-toxic” in the data set on Mus musculus [1] and “Toxic” in the data set on Mus musculus [5]. In the data set on Mus musculus [2], the outcome was Active. In addition, the outcome in the data set on Mus musculus [3], in the data set on Mus musculus [6] and in the data set with Mus musculus [10] was inactive.

On to `CCOC(=O)C1(NC(=O)NCCNS(C)(=O)=O)CC1(C)C` (racemic), for which the Activity entry with Mus musculus [1] and with Mus musculus [5] was “Non-toxic” each time. Further, the outcome in the data set on Mus musculus [2], with Mus musculus [3], in the data set with Mus musculus [6] and in the data set with Mus musculus [10] was inactive.

As to `CCOC(=O)C1(NC(=O)NCCNS(=O)(=O)c2ccc(C)cc2)CC1(C)C` (racemic), the Activity result in the data set with Mus musculus [1] and with Mus musculus [5] was “Non-toxic” throughout. In addition, the result in the data set on Mus musculus [3] and in the data set with Mus musculus [13] was Active. Besides, the outcome with Mus musculus [6] and in the data set with Mus musculus [10] was inactive.

Consider `Cc1ccc(S(=O)(=O)NCCN2C(=O)NC3(CC3(C)C)C2=O)cc1` (racemic), for which the “Ratio TD50/ED50” value with Mus musculus [7] came to 12. For the same compound, the Activity result with Mus musculus [1] is “Non-toxic”; in the data set on Mus musculus [5] it was “Toxic”. Besides, the result in the data set on Mus musculus [14], with Mus musculus [9] and in the data set with Mus musculus [10] was Active. In data set [8], the TD50 at 4 h worked out at 488 mg/kg. Moreover, in the data set with Mus musculus [6], the outcome was inactive. For the same compound, the ED50 in the data set on Mus musculus [11] was found to be 40.6 mg/kg.

For `CN(C)S(=O)(=O)NCCN1C(=O)NC2(CC2(C)C)C1=O` (racemic), the Activity entry with Mus musculus [1] and in the data set on Mus musculus [5] was “Non-toxic” each time. Besides, the outcome in the data set on Mus musculus [2], in the data set on Mus musculus [6] and in the data set on Mus musculus [10] was inactive. For the same compound, the result in the data set on Mus musculus [3] was Active.

For `CC(C)c1cc(C(C)C)c(S(=O)(=O)NCCN2C(=O)NC3(CC3(C)C)C2=O)c(C(C)C)c1` (racemic), the Activity result with Mus musculus [1] and in the data set on Mus musculus [5] was “Non-toxic” throughout. Moreover, the outcome in the data set on Mus musculus [3] and in the data set with Mus musculus [13] was Active. Also, the outcome in the data set with Mus musculus [6] and in the data set with Mus musculus [10] was inactive.

With `CCOC(=O)C1(NC(=O)NCCNS(=O)(=O)c2ccc([N+](=O)[O-])cc2)CC1(C)C` (racemic), the Activity result with Mus musculus [1] and with Mus musculus [5] was “Non-toxic” in each case. Further, the outcome with Mus musculus [2], in the data set on Mus musculus [3], in the data set on Mus musculus [6] and with Mus musculus [10] was inactive.

As for `CCOC(=O)C1(NC(=O)NCCNS(=O)(=O)c2c(C(C)C)cc(C(C)C)cc2C(C)C)CC1(C)C` (racemic), the Activity result in the data set on Mus musculus [1] and in the data set with Mus musculus [5] was “Non-toxic” in each case. Further, the result with Mus musculus [2] was Active. Further, the outcome in the data set on Mus musculus [3], in the data set on Mus musculus [6] and in the data set on Mus musculus [10] was inactive.

Turning to `CCOC(=O)C1(NC(=O)NCCNS(=O)(=O)c2cccc([N+](=O)[O-])c2)CC1(C)C` (racemic), the Activity entry with Mus musculus [1] and in the data set with Mus musculus [5] was “Non-toxic” each time. The result with Mus musculus [2], in the data set on Mus musculus [3], in the data set on Mus musculus [6] and with Mus musculus [10] was inactive.

As for `CCCCS(=O)(=O)NCCNC(=O)NC1(C(=O)OCC)CC1(C)C` (racemic), the Activity entry in the data set with Mus musculus [1] and with Mus musculus [5] was “Non-toxic” throughout. The result in the data set with Mus musculus [3], with Mus musculus [6] and in the data set with Mus musculus [10] was inactive. Further, in the data set on Mus musculus [13], the result was Active.

With `CCOC(=O)C1(NC(=O)NCCNS(=O)(=O)N(C)C)CC1(C)C` (racemic), the Activity entry in the data set with Mus musculus [1] and in the data set on Mus musculus [5] was “Non-toxic” in each case. Further, the outcome with Mus musculus [2], with Mus musculus [3], with Mus musculus [6] and with Mus musculus [10] was inactive.

As to `CC1(C)CC12NC(=O)N(CCNS(=O)(=O)c1cccs1)C2=O` (racemic), the Activity entry with Mus musculus [1] and in the data set on Mus musculus [15] was “Toxic” throughout. Moreover, the result in the data set with Mus musculus [3] and in the data set on Mus musculus [13] was Active. The outcome in the data set with Mus musculus [6] and in the data set with Mus musculus [10] was inactive.

Turning to `CC1(C)CC12NC(=O)N(CCNS(C)(=O)=O)C2=O` (racemic), the Activity entry with Mus musculus [1] and in the data set on Mus musculus [5] was “Non-toxic” in each case. The result with Mus musculus [2], with Mus musculus [3], in the data set with Mus musculus [6] and in the data set on Mus musculus [10] was inactive.

As to `CC1(C)CC12NC(=O)N(CCNS(=O)(=O)c1ccc([N+](=O)[O-])cc1)C2=O` (racemic), the Activity entry in the data set with Mus musculus [1] and with Mus musculus [5] was “Non-toxic” throughout. The outcome in the data set on Mus musculus [2] was Active. In addition, the outcome with Mus musculus [3], in the data set with Mus musculus [6] and with Mus musculus [10] was inactive.

As for `CCCCS(=O)(=O)NCCN1C(=O)NC2(CC2(C)C)C1=O` (racemic), the Activity entry in the data set with Mus musculus [1] and in the data set with Mus musculus [5] was “Non-toxic” each time. Moreover, the outcome with Mus musculus [14] and in the data set on Mus musculus [13] was Active. Further, the outcome in the data set on Mus musculus [6] and with Mus musculus [10] was inactive.

Consider `O=C1NC(=O)C(c2ccccc2)(c2ccccc2)N1` [PHENYTOIN], for which the Activity result in the data set on Mus musculus [16] and in the data set on Mus musculus [15] was “Toxic” throughout. The outcome in the data set on Mus musculus [9] and with Mus musculus [12] was Active. The result with Mus musculus [6] and in the data set on Mus musculus [10] was inactive. For the same compound, in the data set on Mus musculus [11], the ED50 was determined as 9.2 mg/kg.

As to `CCOC(=O)C1(NC(=O)NCCNS(=O)(=O)c2ccc(F)cc2)CC1(C)C` (racemic), the Activity result in the data set on Mus musculus [1] and in the data set on Mus musculus [5] was “Non-toxic” each time. The result with Mus musculus [14] and in the data set with Mus musculus [13] was Active. The outcome in the data set on Mus musculus [6] and with Mus musculus [10] was inactive.
